{"source": "paper PMC10520196", "about": "(Clinical Pharmacokinetics, 2023)", "key": {"[1]": {"experiment": "Final pediatric population PK model", "type": "in vivo, human"}, "Observed C24 in P1093": {"experiment": "Observed C24 in P1093", "type": "in vivo", "conditions": "human, plasma, oral, Geometric mean C24, P1093, ≥ 6 to < 10 kg"}, "[2]": {"conditions": "maturation half-time, fixed; based on paracetamol; ref Anderson et al.; cited from earlier work"}, "[3]": {"conditions": "healthy adult volunteers, same dose; cited from earlier work"}, "[4]": {"conditions": "final PopPK model, reference 70-kg subject"}}, "data": [{"smiles": "C[C@@H]1CCO[C@H]2Cn3cc(C(=O)NCc4ccc(F)cc4F)c(=O)c(O)c3C(=O)N12", "note": "[dolutegravir, Dolutegravir]", "values": [{"measurement": "KA (DT and granules)", "setting": "[1]; calculated as 0.854 × 2.04", "value": "KA (DT and granules) = 1.74 (95% CI 1.20–2.28), calculated as 0.854 × 2.04 (95% CI 0.854 × 1.41–0.854 × 2.67)"}, {"measurement": "V/F~WT", "setting": "[1]; effect of weight on V/F (exponent)", "value": 0.556}, {"measurement": "KA~DT and granules", "setting": "[1]; final PopPK model, factor on KA of FCT", "value": 2.04}, {"measurement": "KA, FCT", "setting": "[1]; final PopPK model, film-coated tablet", "value": 0.854, "unit": "h^–1"}, {"measurement": "CL/F", "setting": "[1]; [4]", "value": 1.03, "unit": "L/h"}, {"measurement": "V/F", "setting": "[1]; [4]", "value": 13.6, "unit": "L"}, {"measurement": "ω^2CL point estimate", "setting": "[1]; inter-individual variability of CL/F, variance", "value": 0.0863}, {"measurement": "ω^2KA point estimate", "setting": "[1]; inter-individual variability of KA, variance", "value": 0.762}, {"measurement": "ω^2V point estimate", "setting": "[1]; inter-individual variability of V/F, variance", "value": 0.0698}, {"measurement": "ω^2IOV,KA point estimate", "setting": "[1]; inter-occasion variability of KA, variance", "value": 0.610}, {"measurement": "F, fasted DT/granules", "setting": "[1]; relative bioavailability", "value": 1.53}, {"measurement": "F, without regard to food, FCT", "setting": "[1]; relative bioavailability", "value": 1.10}, {"measurement": "F, fasted FCT", "setting": "[1]; relative bioavailability, reference, fixed", "value": 1.00}, {"measurement": "concentration at 24 h", "setting": "Observed C24 in P1093; 10 mg, < 6 months of age, DT 10 mg QD", "value": 1820, "unit": "ng/mL"}, {"measurement": "concentration at 24 h", "setting": "Observed C24 in P1093; 10 mg, ≥ 6 months of age, DT 10 mg QD", "value": 735, "unit": "ng/mL"}, {"measurement": "concentration at 24 h", "setting": "Observed C24 in P1093; 15 mg, ≥ 6 months of age, DT 15 mg QD", "value": 908, "unit": "ng/mL"}, {"measurement": "TM50", "setting": "[2]", "value": 52.2, "unit": "FIX week"}, {"measurement": "Relative bioavailability of DT vs granules", "setting": "[3]", "value": "comparable"}]}]}
